Results as given in patent US9708314B2, “Heterocyclic amide compound” (NISSAN CHEMICAL INDUSTRIES, LTD., priority 2013, dated 2017).

Tests used:
[1] = tested on: Echinochloa crus-galli var. crus-galli; experiment: Test Example 3: herbicidal effect by application to foliage (Wagner pot, water depth 0.1-0.5 cm); assay type: in vivo; settings: Nineteenth Table; application to foliage; application herbicide amount 320 g/ha
In short: (§1)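 Wagner pot foliar test: sow, grow 14 d (25–30 °C), spray diluted emulsion at set g/ha, score after 3 wk; 0 ≤5%, 5 ≥90% herbicidal ratio.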

Cyperus difformis = experiment: as above; assay type: in vivo; settings: Nineteenth Table; application to foliage; application herbicide amount 320 g/ha
In short: as §1

Leptochloa chinensis = experiment: as above; assay type: in vivo; settings: Nineteenth Table; application to foliage; application herbicide amount 320 g/ha
In short: as §1

Glycine max = experiment: Test Example 4: effect on crop by application to foliage (diluvial soil, plastic box); assay type: in vivo; settings: application to foliage, 320 g/ha
In short: (§2)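 Scores run from 0 (herbicidal ratio ≤5%) to 5 (≥90%, almost fully withered) and were assessed three weeks after foliar spraying. Seedlings had been raised for 14 days at 25-30° C in sterilized diluvial soil before treatment, with the emulsion diluted in water to the stated g/ha dose.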

Triticum aestivum = experiment: as above; assay type: in vivo; settings: application to foliage, 320 g/ha
In short: as §2

Brassica campestris L. = experiment: as above; assay type: in vivo; settings: application to foliage, 320 g/ha
In short: as §2

[2] = tested on: Beta vulgaris ssp. vulgaris; experiment: as above; assay type: in vivo; settings: application to foliage, 320 g/ha
In short: as §2

[3] = tested on: directly sowed Oryza sativa; experiment: as above; assay type: in vivo; settings: application to foliage, 320 g/ha
In short: as §2

Zea mays = experiment: as above; assay type: in vivo; settings: application to foliage, 320 g/ha
In short: as §2

[4] = tested on: directly sowed Oryza sativa; experiment: Test Example 3: effect on crop by application to foliage (Wagner pot, water depth 0.1-0.5 cm); assay type: in vivo; settings: Nineteenth Table; application to foliage; application herbicide amount 320 g/ha
In short: as §1

Lolium multiflorum Lam. = experiment: Test Example 4: herbicidal effect by application to foliage (diluvial soil, plastic box); assay type: in vivo; settings: application to foliage, 320 g/ha
In short: as §2

Digitaria ciliaris = experiment: as above; assay type: in vivo; settings: application to foliage, 320 g/ha
In short: as §2

Avena fatua = experiment: as above; assay type: in vivo; settings: application to foliage, 320 g/ha
In short: as §2

Stellaria media = experiment: as above; assay type: in vivo; settings: application to foliage, 320 g/ha
In short: as §2

Abutilon theophrasti = experiment: as above; assay type: in vivo; settings: application to foliage, 320 g/ha
In short: as §2

Amaranthus retroflexus = experiment: as above; assay type: in vivo; settings: application to foliage, 320 g/ha
In short: as §2

[5] = tested on: Echinochloa crus-galli var. crus-galli; experiment: as above; assay type: in vivo; settings: application to foliage, 320 g/ha
In short: as §2

Veronica persica = experiment: as above; assay type: in vivo; settings: application to foliage, 320 g/ha
In short: as §2

Chenopodium album = experiment: as above; assay type: in vivo; settings: application to foliage, 320 g/ha
In short: as §2

Galium spurium = experiment: as above; assay type: in vivo; settings: application to foliage, 320 g/ha
In short: as §2

Alopecurus myosuroides = experiment: as above; assay type: in vivo; settings: application to foliage, 320 g/ha
In short: as §2

Apera spica-venti. = experiment: as above; assay type: in vivo; settings: application to foliage, 320 g/ha
In short: as §2

Setaria viridis = experiment: as above; assay type: in vivo; settings: application to foliage, 320 g/ha
In short: as §2

SMILES: CC(C)c1nnc2c(C(=O)Nc3nnnn3C)ccc(Cl)n12 [2-004, 5-Chloro-3-isopropyl-N-(1-methyl-1H-tetrazol-5-yl)-[1,2,4]triazolo[4,3-a]pyridine-8-carboxamide]
- melting point: 189 to 190 °C

SMILES: Cc1nonc1NC(=O)c1ccc(C(F)(F)F)n2c(C(C)C)nnc12 [3-001, 3-Isopropyl-N-(4-methyl-1,2,5-oxadiazol-3-yl)-5-(trifluoromethyl)-[1,2,4]triazolo[4,3-a]pyridine-8-carboxamide]
- melting point: 185 to 186 °C

SMILES: CCn1nc2c(C(=O)Nc3nnc(C)o3)ccc(C(F)(F)F)n2c1=O [6-003]
- H (herbicidal effect grade) [1]: 1 (Herbicidal ratio of 5% or more and less than 20%)
- E (herbicidal effect grade) (Cyperus difformis): 0 (Herbicidal ratio of 5% or less (almost no effect))
- D (herbicidal effect grade) (Leptochloa chinensis): 5 (Herbicidal ratio of 90% or more (almost completely withered))
- effect on crop, c (Glycine max) (Glycine max): 0 (Herbicidal ratio of 5% or less (almost no effect))
- effect on crop, e (Triticum aestivum) (Triticum aestivum): 0 (Herbicidal ratio of 5% or less (almost no effect))
- effect on crop, g (Brassica campestris L.) (Brassica campestris L.): 0 (Herbicidal ratio of 5% or less (almost no effect))
- effect on crop, f (Beta vulgaris ssp. vulgaris) [2]: 1 (Herbicidal ratio of 5% or more and less than 20%)
- effect on crop, d (directly sowed Oryza sativa) [3]: 0 (Herbicidal ratio of 5% or less (almost no effect))
- effect on crop, b (Zea mays) (Zea mays): 0 (Herbicidal ratio of 5% or less (almost no effect))
- b (effect on crop grade) [4]: 0 (Herbicidal ratio of 5% or less (almost no effect))
- herbicidal effect, K (Lolium multiflorum Lam.) (Lolium multiflorum Lam.): 0 (Herbicidal ratio of 5% or less (almost no effect))
- herbicidal effect, F (Digitaria ciliaris) (Digitaria ciliaris): 4 (Herbicidal ratio of 70% or more and less than 90%)
- herbicidal effect, I (Avena fatua) (Avena fatua): 0 (Herbicidal ratio of 5% or less (almost no effect))
- herbicidal effect, P (Stellaria media) (Stellaria media): 4 (Herbicidal ratio of 70% or more and less than 90%)
- herbicidal effect, M (Abutilon theophrasti) (Abutilon theophrasti): 4 (Herbicidal ratio of 70% or more and less than 90%)
- herbicidal effect, N (Amaranthus retroflexus) (Amaranthus retroflexus): 2 (Herbicidal ratio of 20% or more and less than 40%)
- herbicidal effect, H (Echinochloa crus-galli var. crus-galli) [5]: 3 (Herbicidal ratio of 40% or more and less than 70%)
- herbicidal effect, R (Veronica persica) (Veronica persica): 1 (Herbicidal ratio of 5% or more and less than 20%)
- herbicidal effect, O (Chenopodium album) (Chenopodium album): 3 (Herbicidal ratio of 40% or more and less than 70%)
- herbicidal effect, Q (Galium spurium) (Galium spurium): 1 (Herbicidal ratio of 5% or more and less than 20%)
- herbicidal effect, J (Alopecurus myosuroides) (Alopecurus myosuroides): 0 (Herbicidal ratio of 5% or less (almost no effect))
- herbicidal effect, L (Apera spica-venti.) (Apera spica-venti.): 0 (Herbicidal ratio of 5% or less (almost no effect))
- herbicidal effect, G (Setaria viridis) (Setaria viridis): 3 (Herbicidal ratio of 40% or more and less than 70%)
